# Source: patent US20260297134A1, “CYCLIC PEPTIDES AS PET IMAGING AGENTS OF GRANZYME B” (Merck Sharp & Dohme LLC, priority 2023, published 2026)
# Bridge positions count the residues as written; N and C are the ends. Square brackets hold non-standard residues; d marks the D form. Peptide text beside a SMILES is read from it. * marks the point of attachment. X1 = O=C(O)CN1CCN(CC(=O)O)CC(Cc2ccc(NC(=S)*)cc2)N(CC(=O)O)CC1; NMeF = CN[C@@H](Cc1ccccc1)C(=O)O; NMeA = CN[C@@H](C)C(=O)O; Propionyl = CCC(=O)*
# Biological target: human Granzyme B (hGranzyme B) (Homo sapiens, UniProt P10144)
# Experiment: Surface Plasmon Resonance (SPR) binding to human Granzyme B
# Conditions: Table 8, 25° C.
# Protocol: All reagents and solvents were purchased from commercial sources and used “as is” unless otherwise noted. Reaction progress and synthetic intermediate analysis were assessed by LCMS (UV detection with ESI, APCI, or other mass detection) when applicable using a MeCN/water gradient with either TFA, formic acid, or NH4HCO3 modifier. Silica gel and reverse-phase flash column chromatography were conducted with commercially available pre-packed columns. Reverse-phase preparative HPLC purification was performed on preparative HPLC instruments with UV and MS detection using a MeCN/water gradient with either TFA, formic acid, or NH4OH modifier. Unless otherwise noted, all KD data presented in tables refers to the surface plasmon resonance assay that is described in the Biological Assay section.
# The kinetics of test peptide binding to human Granzyme B (hGranzyme B) was determined by SPR. All experiments were performed at 25° C. using the Biacore 8k+ instrument (Cytiva, Marlborough, MA). The Biacore 8k+ Insight Evaluation Software Version 3.0 was used to fit the data with a 1:1 binding model to determine the association rate constant ka (M^−1s^−1, where “M” equals molar and “s” equals seconds) and the dissociation rate constant kd (s^−1). These rate constants were used to calculate the equilibrium dissociation constant, KD (M)=kd/ka. To measure the binding kinetics of peptides of interest, surfaces were prepared by a capture method to a Series S Streptavidin (SA) chip using a 1×HBS-EP+ running buffer (Cytiva). hGranzyme B was diluted to 10 μg/mL in 1×HBS-EP+ and flowed over spot 2 of each flow cell on the chip at a flow rate of 10 μl/min for 20 s to achieve a level of capture of ~1100 RU. An unmodified spot 1 of each flow cell was used as a matrix binding control or reference surface. Binding kinetics were measured using single cycle kinetics at 25° C. by injecting 5 concentrations with 3-fold serial dilutions of test peptides from […] to 1 μM. Compound dilutions were performed manually in a running buffer containing 1×HBS-EP+(Cytiva), and a final concentration of 2% DMSO. The interaction analyses over hGranzyme B, were performed using a 120 s association time and a 900 s dissociation time. All experiments were conducted at a flow rate of […] with a data collection rate of 10 Hz.
# Peptide dilution series included 2 zero concentration points (no compound) which were averaged and subtracted from the peptide concentration injection as DMSO control responses. Binding data acquired from the reference surface (matrix binding control) were subtracted from the binding data for hGranzyme B surface on the chip to determine specific binding. Next, the association phase data were solvent corrected to account for any signal fluctuation throughout the experiment due to subtle DMSO concentration differences. Corrected response data were analyzed using the Biacore 8k+ Evaluation Software Version 3.0 according to the manufacturer. SPR data for representative compounds of the disclosure are found in Table 8.
# Chain of human Granzyme B (hGranzyme B) (P10144 21-247): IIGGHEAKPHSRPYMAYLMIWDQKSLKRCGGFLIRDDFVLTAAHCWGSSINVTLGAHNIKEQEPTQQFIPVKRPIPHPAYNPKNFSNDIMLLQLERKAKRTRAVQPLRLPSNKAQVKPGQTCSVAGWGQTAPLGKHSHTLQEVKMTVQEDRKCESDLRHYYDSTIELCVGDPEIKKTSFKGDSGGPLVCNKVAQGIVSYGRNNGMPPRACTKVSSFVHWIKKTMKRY
row,SMILES,Kd [nM]
1,"CC(C)[C@@H]1NC(=O)[C@H](CC(=O)O)NC(=O)[C@H](Cc2ccc(O)cc2)NC(=O)[C@H](Cc2ccc(O)cc2)NC(=O)[C@H](Cc2ccccc2)N(C)C(=O)[C@H](Cc2ccccc2)N(C)C(=O)[C@H](Cc2ccccc2)NC(=O)CSC[C@@H](C(=O)NCC(=O)NCC(=O)N[C@@H](CCCCN)C(N)=O)NC(=O)[C@H](Cc2c[nH]cn2)NC(=O)[C@H](Cc2ccccc2)N(C)C(=O)[C@H](Cc2ccc(O)cc2)NC(=O)[C@H](C(C)C)NC(=O)[C@H](CC(=O)O)NC(=O)[C@H](C(C)C)NC(=O)[C@H](CC(=O)O)NC1=O [Compound 2a, *F.NMeF.NMeF.Y.Y.D.V.D.V.D.V.Y.NMeF.H.*C.G.G.K-NH2] ({CH2CO}-F[NMeF][NMeF]YYDVDVDVY[NMeF]HCGGK-NH2; thioether N-15)",1.1
2,"CC(C)[C@@H]1NC(=O)[C@H](CC(=O)O)NC(=O)[C@H](Cc2ccc(O)cc2)NC(=O)[C@H](Cc2ccc(O)cc2)NC(=O)[C@H](Cc2ccccc2)N(C)C(=O)[C@H](Cc2ccccc2)N(C)C(=O)[C@H](Cc2ccccc2)NC(=O)CSC[C@@H](C(=O)NCC(=O)N[C@@H](CCCCN)C(=O)N[C@@H](CCCCN)C(N)=O)NC(=O)[C@H](Cc2c[nH]cn2)NC(=O)[C@H](Cc2ccccc2)N(C)C(=O)[C@H](Cc2ccc(O)cc2)NC(=O)[C@H](C(C)C)NC(=O)[C@H](CC(=O)O)NC(=O)[C@H](C(C)C)NC(=O)[C@H](CC(=O)O)NC1=O [Compound 13a, *F.NMeF.NMeF.Y.Y.D.V.D.V.D.V.Y.NMeF.H.*C.G.K.K-NH2] ({CH2CO}-F[NMeF][NMeF]YYDVDVDVY[NMeF]HCGKK-NH2; thioether N-15)",0.1
3,"CC(C)[C@@H]1NC(=O)[C@H](CC(=O)O)NC(=O)[C@H](Cc2ccc(O)cc2)NC(=O)[C@H](Cc2ccc(O)cc2)NC(=O)[C@H](Cc2ccccc2)N(C)C(=O)[C@H](C)N(C)C(=O)[C@H](Cc2ccccc2)NC(=O)CSC[C@@H](C(=O)NCC(N)=O)NC(=O)[C@H](Cc2c[nH]cn2)NC(=O)[C@H](Cc2ccccc2)N(C)C(=O)[C@H](Cc2ccc(O)cc2)NC(=O)[C@H](C(C)C)NC(=O)[C@H](CC(=O)O)NC(=O)[C@H](C(C)C)NC(=O)[C@H](CC(=O)O)NC1=O [Compound 25a, *F.NMeA.NMeF.Y.Y.D.V.D.V.D.V.Y.NMeF.H.*C.G-NH2] ({CH2CO}-F[NMeA][NMeF]YYDVDVDVY[NMeF]HCG-NH2; thioether N-15)",199
4,"CC(C)[C@@H]1NC(=O)[C@H](CC(=O)O)NC(=O)[C@H](Cc2ccc(O)cc2)NC(=O)[C@H](Cc2ccc(O)cc2)NC(=O)[C@H](C)N(C)C(=O)[C@H](Cc2ccccc2)N(C)C(=O)[C@H](Cc2ccccc2)NC(=O)CSC[C@@H](C(=O)NCC(N)=O)NC(=O)[C@H](Cc2c[nH]cn2)NC(=O)[C@H](Cc2ccccc2)N(C)C(=O)[C@H](Cc2ccc(O)cc2)NC(=O)[C@H](C(C)C)NC(=O)[C@H](CC(=O)O)NC(=O)[C@H](C(C)C)NC(=O)[C@H](CC(=O)O)NC1=O [Compound 24a, *F.NMeF.NMeA.Y.Y.D.V.D.V.D.V.Y.NMeF.H.*C.G-NH2] ({CH2CO}-F[NMeF][NMeA]YYDVDVDVY[NMeF]HCG-NH2; thioether N-15)",5.4
5,"CC(C)[C@@H]1NC(=O)[C@H](CC(=O)O)NC(=O)[C@H](Cc2ccc(O)cc2)NC(=O)[C@H](Cc2ccc(O)cc2)NC(=O)[C@H](Cc2ccccc2)N(C)C(=O)[C@H](Cc2ccccc2)N(C)C(=O)[C@H](Cc2ccccc2)NC(=O)CSC[C@@H](C(=O)NCC(N)=O)NC(=O)[C@H](Cc2c[nH]cn2)NC(=O)[C@H](Cc2ccccc2)N(C)C(=O)[C@H](Cc2ccc(O)cc2)NC(=O)[C@H](C(C)C)NC(=O)[C@H](CC(=O)O)NC(=O)[C@H](C)NC(=O)[C@H](CC(=O)O)NC1=O [Compound 16a, *F.NMeF.NMeF.Y.Y.D.V.D.A.D.V.Y.NMeF.H.*C.G-NH2] ({CH2CO}-F[NMeF][NMeF]YYDVDADVY[NMeF]HCG-NH2; thioether N-15)",4.7
6,"CC(C)[C@@H]1NC(=O)[C@H](C)NC(=O)[C@H](C(C)C)NC(=O)[C@H](CC(=O)O)NC(=O)[C@H](Cc2ccc(O)cc2)NC(=O)[C@H](Cc2ccc(O)cc2)NC(=O)[C@H](Cc2ccccc2)N(C)C(=O)[C@H](Cc2ccccc2)N(C)C(=O)[C@H](Cc2ccccc2)NC(=O)CSC[C@@H](C(=O)NCC(N)=O)NC(=O)[C@H](Cc2c[nH]cn2)NC(=O)[C@H](Cc2ccccc2)N(C)C(=O)[C@H](Cc2ccc(O)cc2)NC(=O)[C@H](C(C)C)NC(=O)[C@H](CC(=O)O)NC1=O [Compound 22a, *F.NMeF.NMeF.Y.Y.D.V.A.V.D.V.Y.NMeF.H.*C.G-NH2] ({CH2CO}-F[NMeF][NMeF]YYDVAVDVY[NMeF]HCG-NH2; thioether N-15)",548
7,"CC(C)[C@@H]1NC(=O)[C@H](CC(=O)O)NC(=O)[C@H](C)NC(=O)[C@H](Cc2ccc(O)cc2)NC(=O)[C@H](Cc2ccccc2)N(C)C(=O)[C@H](Cc2ccccc2)N(C)C(=O)[C@H](Cc2ccccc2)NC(=O)CSC[C@@H](C(=O)NCC(N)=O)NC(=O)[C@H](Cc2c[nH]cn2)NC(=O)[C@H](Cc2ccccc2)N(C)C(=O)[C@H](Cc2ccc(O)cc2)NC(=O)[C@H](C(C)C)NC(=O)[C@H](CC(=O)O)NC(=O)[C@H](C(C)C)NC(=O)[C@H](CC(=O)O)NC1=O [Compound 15a, *F.NMeF.NMeF.Y.A.D.V.D.V.D.V.Y.NMeF.H.*C.G-NH2] ({CH2CO}-F[NMeF][NMeF]YADVDVDVY[NMeF]HCG-NH2; thioether N-15)",0.8
8,"CC(C)[C@@H]1NC(=O)[C@H](CC(=O)O)NC(=O)[C@H](C)NC(=O)[C@H](CC(=O)O)NC(=O)[C@H](Cc2ccc(O)cc2)NC(=O)[C@H](Cc2ccc(O)cc2)NC(=O)[C@H](Cc2ccccc2)N(C)C(=O)[C@H](Cc2ccccc2)N(C)C(=O)[C@H](Cc2ccccc2)NC(=O)CSC[C@@H](C(=O)NCC(N)=O)NC(=O)[C@H](Cc2c[nH]cn2)NC(=O)[C@H](Cc2ccccc2)N(C)C(=O)[C@H](Cc2ccc(O)cc2)NC(=O)[C@H](C(C)C)NC(=O)[C@H](CC(=O)O)NC1=O [Compound 20a, *F.NMeF.NMeF.Y.Y.D.A.D.V.D.V.Y.NMeF.H.*C.G-NH2] ({CH2CO}-F[NMeF][NMeF]YYDADVDVY[NMeF]HCG-NH2; thioether N-15)",288
9,"CCC(=O)NCCCC[C@H](NC(=O)CNC(=O)CNC(=O)[C@@H]1CSCC(=O)N[C@@H](Cc2ccccc2)C(=O)N(C)[C@@H](Cc2ccccc2)C(=O)N(C)[C@@H](Cc2ccccc2)C(=O)N[C@@H](Cc2ccc(O)cc2)C(=O)N[C@@H](Cc2ccc(O)cc2)C(=O)N[C@@H](CC(=O)O)C(=O)N[C@@H](C(C)C)C(=O)N[C@@H](CC(=O)O)C(=O)N[C@@H](C(C)C)C(=O)N[C@@H](CC(=O)O)C(=O)N[C@@H](C(C)C)C(=O)N[C@@H](Cc2ccc(O)cc2)C(=O)N(C)[C@@H](Cc2ccccc2)C(=O)N[C@@H](Cc2c[nH]cn2)C(=O)N1)C(N)=O [Compound 4a, *F.NMeF.NMeF.Y.Y.D.V.D.V.D.V.Y.NMeF.H.*C.G.G.K(Prop)-NH2] ({CH2CO}-F[NMeF][NMeF]YYDVDVDVY[NMeF]HCGGK(Propionyl)-NH2; thioether N-15)",1.1
10,"CC(C)[C@@H]1NC(=O)[C@H](CC(=O)O)NC(=O)[C@H](Cc2ccc(O)cc2)NC(=O)[C@H](Cc2ccc(O)cc2)NC(=O)[C@H](Cc2ccccc2)N(C)C(=O)[C@H](Cc2ccccc2)N(C)C(=O)[C@H](Cc2ccccc2)NC(=O)CSC[C@@H](C(=O)NCC(=O)NCC(=O)N[C@@H](CCCCNC(=S)Nc2ccc(CC3CN(CC(=O)O)CCN(CC(=O)O)CCN3CC(=O)O)cc2)C(N)=O)NC(=O)[C@H](Cc2c[nH]cn2)NC(=O)[C@H](Cc2ccccc2)N(C)C(=O)[C@H](Cc2ccc(O)cc2)NC(=O)[C@H](C(C)C)NC(=O)[C@H](CC(=O)O)NC(=O)[C@H](C)NC(=O)[C@H](CC(=O)O)NC1=O (stereo partly shown) [Compound 8a, *F.NMeF.NMeF.Y.Y.D.V.D.A.D.V.Y.NMeF.H.*C.G.G.K(NOTA)-NH2] ({CH2CO}-F[NMeF][NMeF]YYDVDADVY[NMeF]HCGGK(X1)-NH2; thioether N-15)",3.7
